# Reference: article PMC3382171 (PLoS ONE, 2012)
# Columns and labels:
# Assay in all cases: biochemical
# Conditions in all cases: read-out: Upstate KSS % inhibition at 1uM
# [1] = target: AXL (Homo sapiens, UniProt P30530)
# Method: (§1) In these selectivity assays the concentration of ATP was set to the Km value of ATP for each kinase tested to allow for a relative potency comparison between the various kinases. The compounds were tested at 1 µM final concentration. […] (A) Kinase selectivity screen (KSS) performed at Upstate Biotechnology. […] (B) KSS performed at University of Dundee (Division of Signal Transduction Therapy). […] (PDF) Click here for additional data file.
# [2] = target: T1, Arg (Homo sapiens, UniProt P42684)
# T1 construct: gene ABL2
# Method: as §1
# [3] = target: BLK (Homo sapiens, UniProt P51451)
# Method: as §1
# [4] = target: T2, CAMKIIbeta (Homo sapiens, UniProt Q13554)
# T2 construct: gene CAMK2B
# Method: as §1
# [5] = target: CDK1/cyclinB (Homo sapiens, UniProt P06493)
# Method: as §1
# [6] = target: CDK2/CyclinA (Homo sapiens, UniProt P24941)
# Method: as §1
# [7] = target: T3, CaMKIV (Homo sapiens, UniProt Q16566)
# T3 construct: gene CAMK4
# Method: as §1
# [8] = target: DDR2 (Homo sapiens, UniProt Q16832)
# Method: as §1
# [9] = target: FGFR3 (Homo sapiens, UniProt P22607)
# Method: as §1
# [10] = target: FGR (Homo sapiens, UniProt P09769)
# Method: as §1
# [11] = target: T4, Fms (Homo sapiens, UniProt P07333)
# T4 construct: gene CSF1R
# Method: as §1
# [12] = target: T5, GSK3beta (Homo sapiens, UniProt P49841)
# T5 construct: gene GSK3B
# Method: as §1
# [13] = target: T6, IKKalpha (Homo sapiens, UniProt O15111)
# T6 construct: gene CHUK
# Method: as §1
# [14] = target: IRAK4 (Homo sapiens, UniProt Q9NWZ3)
# Method: as §1
# [15] = target: T7, MAPK2 (Homo sapiens, UniProt P28482)
# T7 construct: gene MAPK1
# Method: as §1
# [16] = target: T8, MEK1 (Homo sapiens, UniProt Q02750)
# T8 construct: gene MAP2K1
# T8 sequence (Q02750 whole entry): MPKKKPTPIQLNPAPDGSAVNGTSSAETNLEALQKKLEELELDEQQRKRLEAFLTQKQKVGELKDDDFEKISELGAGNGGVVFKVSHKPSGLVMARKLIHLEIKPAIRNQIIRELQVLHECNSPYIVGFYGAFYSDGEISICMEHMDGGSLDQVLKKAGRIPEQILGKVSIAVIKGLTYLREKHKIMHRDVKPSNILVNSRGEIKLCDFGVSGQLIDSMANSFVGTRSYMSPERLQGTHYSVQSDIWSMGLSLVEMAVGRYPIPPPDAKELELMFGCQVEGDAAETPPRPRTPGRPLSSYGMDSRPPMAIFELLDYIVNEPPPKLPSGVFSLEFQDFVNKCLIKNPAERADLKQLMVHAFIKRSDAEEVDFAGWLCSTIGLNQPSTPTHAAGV
# Method: as §1
# [17] = target: MELK (Homo sapiens, UniProt Q14680)
# Sequence of MELK (Q14680 whole entry): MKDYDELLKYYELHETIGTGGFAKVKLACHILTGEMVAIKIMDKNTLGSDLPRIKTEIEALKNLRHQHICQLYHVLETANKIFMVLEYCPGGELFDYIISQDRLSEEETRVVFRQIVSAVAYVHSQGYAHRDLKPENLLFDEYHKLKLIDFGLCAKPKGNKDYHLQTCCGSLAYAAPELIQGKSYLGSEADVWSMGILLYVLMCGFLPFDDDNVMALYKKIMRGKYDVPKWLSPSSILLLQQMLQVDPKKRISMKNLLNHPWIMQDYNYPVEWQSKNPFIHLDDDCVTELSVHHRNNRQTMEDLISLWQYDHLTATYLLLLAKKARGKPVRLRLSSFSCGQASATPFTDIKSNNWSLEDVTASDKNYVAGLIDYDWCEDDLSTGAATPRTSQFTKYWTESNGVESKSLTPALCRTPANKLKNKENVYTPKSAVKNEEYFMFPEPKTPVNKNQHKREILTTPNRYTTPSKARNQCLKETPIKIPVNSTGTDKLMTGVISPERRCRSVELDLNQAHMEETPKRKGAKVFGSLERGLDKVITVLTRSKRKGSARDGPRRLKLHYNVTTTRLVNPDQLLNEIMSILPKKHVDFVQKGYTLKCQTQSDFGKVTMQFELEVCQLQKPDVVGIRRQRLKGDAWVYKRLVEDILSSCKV
# Method: as §1
# [18] = target: T9, MLCK (Homo sapiens, UniProt Q15746)
# T9 construct: gene MYLK
# Method: as §1
# [19] = target: T10, MNK2 (Homo sapiens, UniProt Q9HBH9)
# T10 construct: gene MKNK2
# Method: as §1
# [20] = target: T11, PI3Kg (Homo sapiens, UniProt P48736)
# T11 construct: gene PIK3CG
# T11 sequence (P48736 whole entry): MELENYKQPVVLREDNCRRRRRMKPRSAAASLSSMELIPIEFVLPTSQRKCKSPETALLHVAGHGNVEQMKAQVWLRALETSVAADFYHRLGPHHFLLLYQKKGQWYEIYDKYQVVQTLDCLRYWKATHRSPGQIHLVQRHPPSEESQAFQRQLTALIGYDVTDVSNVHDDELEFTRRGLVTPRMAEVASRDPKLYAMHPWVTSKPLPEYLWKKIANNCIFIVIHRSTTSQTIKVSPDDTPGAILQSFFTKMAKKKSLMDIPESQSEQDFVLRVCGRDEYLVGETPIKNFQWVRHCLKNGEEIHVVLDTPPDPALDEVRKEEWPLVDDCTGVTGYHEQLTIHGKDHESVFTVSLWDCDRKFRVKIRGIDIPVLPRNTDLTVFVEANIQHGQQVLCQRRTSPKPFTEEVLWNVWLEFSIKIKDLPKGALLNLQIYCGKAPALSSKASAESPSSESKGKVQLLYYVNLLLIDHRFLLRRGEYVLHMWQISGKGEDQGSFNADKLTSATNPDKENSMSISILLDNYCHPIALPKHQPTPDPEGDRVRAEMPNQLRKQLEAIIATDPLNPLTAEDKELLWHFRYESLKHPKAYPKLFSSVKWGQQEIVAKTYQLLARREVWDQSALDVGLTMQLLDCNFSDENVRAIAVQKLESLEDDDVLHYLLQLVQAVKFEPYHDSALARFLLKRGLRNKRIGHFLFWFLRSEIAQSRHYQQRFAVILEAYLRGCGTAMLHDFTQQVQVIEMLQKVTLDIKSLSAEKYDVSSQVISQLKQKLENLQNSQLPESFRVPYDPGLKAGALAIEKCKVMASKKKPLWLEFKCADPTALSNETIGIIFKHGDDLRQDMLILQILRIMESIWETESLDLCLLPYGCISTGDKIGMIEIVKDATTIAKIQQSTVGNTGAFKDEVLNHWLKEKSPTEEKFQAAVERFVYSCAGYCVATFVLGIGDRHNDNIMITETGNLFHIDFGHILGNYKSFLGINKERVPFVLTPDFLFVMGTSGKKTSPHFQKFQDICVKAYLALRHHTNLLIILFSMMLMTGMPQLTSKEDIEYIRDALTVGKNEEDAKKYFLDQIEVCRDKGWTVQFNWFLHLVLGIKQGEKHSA
# Method: as §1
# [21] = target: T12, PKCdelta (Homo sapiens, UniProt Q05655)
# T12 construct: gene PRKCD
# Method: as §1
# [22] = target: T13, PKD2 (Homo sapiens, UniProt Q9BZL6)
# T13 construct: gene PRKD2
# Method: as §1
# [23] = target: T14, PKG1alpha (Homo sapiens, UniProt Q13976)
# T14 construct: gene PRKG1; isoform alpha
# Method: as §1
# [24] = target: T15, PhKgamma (Homo sapiens, UniProt Q16816)
# T15 construct: gene PHKG1
# Method: as §1
# [25] = target: T16, Ros (Homo sapiens, UniProt P08922)
# T16 construct: gene ROS1
# T16 sequence (P08922 whole entry): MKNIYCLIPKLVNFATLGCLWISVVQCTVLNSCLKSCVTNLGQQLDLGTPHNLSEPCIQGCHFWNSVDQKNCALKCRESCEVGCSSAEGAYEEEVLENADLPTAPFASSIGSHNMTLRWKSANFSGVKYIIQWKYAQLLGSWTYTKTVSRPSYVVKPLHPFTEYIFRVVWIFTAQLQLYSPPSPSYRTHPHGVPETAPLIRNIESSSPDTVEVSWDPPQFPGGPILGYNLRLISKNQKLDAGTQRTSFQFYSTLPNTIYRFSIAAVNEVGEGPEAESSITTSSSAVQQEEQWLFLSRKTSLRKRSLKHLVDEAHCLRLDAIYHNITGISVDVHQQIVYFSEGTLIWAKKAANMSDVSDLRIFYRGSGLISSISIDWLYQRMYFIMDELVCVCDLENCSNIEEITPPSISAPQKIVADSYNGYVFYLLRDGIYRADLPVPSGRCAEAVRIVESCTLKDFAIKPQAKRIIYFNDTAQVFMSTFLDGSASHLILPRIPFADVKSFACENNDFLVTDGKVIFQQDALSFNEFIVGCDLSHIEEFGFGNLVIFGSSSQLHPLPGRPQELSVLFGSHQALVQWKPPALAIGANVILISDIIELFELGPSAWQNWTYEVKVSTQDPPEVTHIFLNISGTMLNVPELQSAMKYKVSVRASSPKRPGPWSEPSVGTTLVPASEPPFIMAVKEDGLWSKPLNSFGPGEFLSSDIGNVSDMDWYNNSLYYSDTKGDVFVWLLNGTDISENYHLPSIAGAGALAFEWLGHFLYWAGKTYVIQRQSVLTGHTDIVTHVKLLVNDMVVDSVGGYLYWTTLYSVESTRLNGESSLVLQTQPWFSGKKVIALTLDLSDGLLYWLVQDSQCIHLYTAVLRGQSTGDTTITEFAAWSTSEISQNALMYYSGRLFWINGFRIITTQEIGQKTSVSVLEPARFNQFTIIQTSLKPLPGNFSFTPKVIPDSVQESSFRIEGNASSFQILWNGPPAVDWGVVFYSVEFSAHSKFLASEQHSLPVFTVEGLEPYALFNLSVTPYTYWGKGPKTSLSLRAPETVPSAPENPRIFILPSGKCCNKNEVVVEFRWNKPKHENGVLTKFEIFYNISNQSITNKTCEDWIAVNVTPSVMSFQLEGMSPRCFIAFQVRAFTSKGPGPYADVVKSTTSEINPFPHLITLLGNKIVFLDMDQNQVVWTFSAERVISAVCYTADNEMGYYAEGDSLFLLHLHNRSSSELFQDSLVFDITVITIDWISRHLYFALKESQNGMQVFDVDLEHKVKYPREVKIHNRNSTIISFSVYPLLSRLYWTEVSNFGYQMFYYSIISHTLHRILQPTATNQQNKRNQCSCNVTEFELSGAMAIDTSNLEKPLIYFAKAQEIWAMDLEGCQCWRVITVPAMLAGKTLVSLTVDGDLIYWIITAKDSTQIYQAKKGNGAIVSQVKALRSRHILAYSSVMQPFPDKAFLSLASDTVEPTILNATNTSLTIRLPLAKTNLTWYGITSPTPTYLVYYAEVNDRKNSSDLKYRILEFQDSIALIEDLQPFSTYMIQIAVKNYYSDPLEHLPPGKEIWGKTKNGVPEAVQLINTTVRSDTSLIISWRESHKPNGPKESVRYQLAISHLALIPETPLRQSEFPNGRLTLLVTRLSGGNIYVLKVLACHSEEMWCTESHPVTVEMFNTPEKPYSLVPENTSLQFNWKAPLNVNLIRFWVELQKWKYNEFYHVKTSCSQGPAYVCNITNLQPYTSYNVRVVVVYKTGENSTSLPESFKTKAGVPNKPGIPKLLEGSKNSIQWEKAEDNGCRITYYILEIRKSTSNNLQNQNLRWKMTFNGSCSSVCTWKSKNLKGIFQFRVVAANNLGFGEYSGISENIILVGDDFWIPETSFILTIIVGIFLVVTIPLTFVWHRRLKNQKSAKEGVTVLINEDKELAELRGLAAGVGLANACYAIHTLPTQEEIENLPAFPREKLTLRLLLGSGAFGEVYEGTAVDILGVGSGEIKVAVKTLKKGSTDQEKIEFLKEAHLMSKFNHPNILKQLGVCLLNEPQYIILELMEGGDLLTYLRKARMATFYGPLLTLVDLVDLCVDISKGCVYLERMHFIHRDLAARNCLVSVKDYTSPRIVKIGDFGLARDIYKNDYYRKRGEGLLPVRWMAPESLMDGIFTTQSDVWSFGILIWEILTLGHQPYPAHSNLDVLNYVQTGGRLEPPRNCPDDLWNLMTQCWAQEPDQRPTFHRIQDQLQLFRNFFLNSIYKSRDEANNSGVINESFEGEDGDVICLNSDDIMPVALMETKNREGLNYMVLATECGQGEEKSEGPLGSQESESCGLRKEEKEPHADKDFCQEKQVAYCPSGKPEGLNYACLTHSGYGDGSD
# Method: as §1
# [26] = target: SRPK2 (Homo sapiens, UniProt P78362)
# Method: as §1
# [27] = target: T17, Snk (Homo sapiens, UniProt Q9NYY3)
# T17 construct: gene PLK2
# Method: as §1
# [28] = target: T18, Tie2 (Homo sapiens, UniProt Q02763)
# T18 construct: gene TEK
# Method: as §1
# [29] = target: T19, TrkB (Homo sapiens, UniProt Q16620)
# T19 construct: gene NTRK2
# Method: as §1
# [30] = target: WNK2 (Homo sapiens, UniProt Q9Y3S1)
# Method: as §1
# [31] = target: T20, Yes (Homo sapiens, UniProt P07947)
# T20 construct: gene YES1
# Method: as §1
# [32] = target: T21, ZIPK (Homo sapiens, UniProt O43293)
# T21 construct: gene DAPK3
# T21 sequence (O43293 whole entry): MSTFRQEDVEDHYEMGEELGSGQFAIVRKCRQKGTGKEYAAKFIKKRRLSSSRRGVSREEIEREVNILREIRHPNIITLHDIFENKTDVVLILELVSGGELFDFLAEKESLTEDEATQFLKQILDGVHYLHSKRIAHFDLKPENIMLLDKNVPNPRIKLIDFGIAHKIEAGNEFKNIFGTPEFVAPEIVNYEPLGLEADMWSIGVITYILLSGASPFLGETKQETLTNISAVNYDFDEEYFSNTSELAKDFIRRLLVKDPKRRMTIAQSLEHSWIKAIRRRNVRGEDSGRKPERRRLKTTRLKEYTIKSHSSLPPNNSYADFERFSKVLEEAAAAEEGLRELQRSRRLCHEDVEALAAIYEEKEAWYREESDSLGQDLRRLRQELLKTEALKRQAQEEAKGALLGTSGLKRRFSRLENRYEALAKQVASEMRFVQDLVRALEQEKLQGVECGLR
# Method: as §1
# [33] = target: T22, c-RAF (Homo sapiens, UniProt P04049)
# T22 construct: gene RAF1
# Method: as §1
# [34] = target: T23, rat CK1delta (Rattus norvegicus, UniProt Q06486)
# T23 construct: gene Csnk1d
# Method: as §1
compound,measurement,setting,value
"OCCn1cc(-c2cnc3nnn(Cc4ccc5ncccc5c4)c3n2)cn1 [METi, PF-04217903]",inhibition at 1 µM,[1],-11%
same,inhibition at 1 µM,[2],10%
same,inhibition at 1 µM,[3],5%
same,inhibition at 1 µM,[4],-6%
same,inhibition at 1 µM,[5],-7%
same,inhibition at 1 µM,[6],0%
same,inhibition at 1 µM,[7],-4%
same,inhibition at 1 µM,[8],0%
same,inhibition at 1 µM,[9],-1%
same,inhibition at 1 µM,[10],0%
same,inhibition at 1 µM,[11],-12%
same,inhibition at 1 µM,[12],-1%
same,inhibition at 1 µM,[13],-2%
same,inhibition at 1 µM,[14],11%
same,inhibition at 1 µM,[15],-7%
same,inhibition at 1 µM,[16],-11%
same,inhibition at 1 µM,[17],2%
same,inhibition at 1 µM,[18],-32%
same,inhibition at 1 µM,[19],0%
same,inhibition at 1 µM,[20],1%
same,inhibition at 1 µM,[21],10%
same,inhibition at 1 µM,[22],5%
same,inhibition at 1 µM,[23],3%
same,inhibition at 1 µM,[24],-3%
same,inhibition at 1 µM,[25],0%
same,inhibition at 1 µM,[26],-2%
same,inhibition at 1 µM,[27],-11%
same,inhibition at 1 µM,[28],-32%
same,inhibition at 1 µM,[29],10%
same,inhibition at 1 µM,[30],-16%
same,inhibition at 1 µM,[31],16%
same,inhibition at 1 µM,[32],0%
same,inhibition at 1 µM,[33],-16%
same,inhibition at 1 µM,[34],-4%
